# Legend:
# [1] = tested on: T. cruzi SN3 strain trypomastigotes; assay: Screening against bloodstream trypomastigotes, SN3 strain (resazurin); assay type: cell-based, Trypanosoma cruzi
# [2] = tested on: T. cruzi Tulahuen strain epimastigotes; assay: Screening against extracellular epimastigotes, Tulahuen strain (resazurin); assay type: cell-based, Trypanosoma cruzi
# Description: Three different T. cruzi […] strains—MHOM/Pe/2011/Arequipa, discrete typing unit (DTU) V [26]; IRHOD/CO/2008/SN3, DTU I [27]; TINF/CH/1956/Tulahuen, DTU VI [26]—were grown at 28 °C in Gibco® RPMI 1640 Medium supplemented as previously reported, and used for in vitro screening.
# Trypanocidal activity against epimastigotes was tested as previously reported. In brief, 5 × 10^5 mL^−1 epimastigotes culture medium were treated by adding the compounds in serial dilutions from 100 to 0.2 µM in 96-well plates (200 µL·well^−1) for 48 h. BZN and untreated growth control were also included in triplicate. Later, 20 μL of resazurin sodium salt (Sigma-Aldrich, St. Louis, MO, USA) was added, and the plates were incubated for another 24 h. Finally, the absorbance of the wells was measured at 570/600 nm and related to the control. The trypanocidal activity was expressed as the IC50 (inhibitory concentration 50) value using GraphPad Prism 6 software.
# [3] = tested on: T. cruzi SN3 strain amastigotes; assay: Screening against intracellular amastigotes in Vero cells, SN3 strain (Giemsa counting); assay type: cell-based, Trypanosoma cruzi
# Description: TINF/CH/1956/Tulahuen, DTU VI [26]—were grown at 28 °C in Gibco® RPMI 1640 Medium supplemented as previously reported, and used for in vitro screening. Trypanocidal activity against amastigotes was tested as previously reported. In brief, bloodstream trypomastigotes (BTs), obtained by cardiac puncture from infected BALB/c mice, were used to infect 1 × 10^4 Vero cells·well^−1 in 24-well plates with rounded coverslips at a multiplicity of infection (MOI) ratio of 10:1. After 24 h of infection, non-internalized trypomastigotes were washed and the infected cells were treated by adding the compounds in serial dilutions from 50 to 0.5 µM in […] for 72 h. BZN and untreated growth controls were also included in triplicate. Later, the number of amastigotes and infected cells were determined in Giemsa stained preparations by analysing 500 host cells randomly distributed in microscopic fields. The trypanocidal activity was expressed as the IC50 using GraphPad Prism 6 software (version 6.07).
# [4] = tested on: T. cruzi Tulahuen strain trypomastigotes; assay: Screening against bloodstream trypomastigotes, Tulahuen strain (resazurin); assay type: cell-based, Trypanosoma cruzi
# [5] = Clinical analysis of heart, kidney and liver markers in serum of treated mice; assay type: in vivo, BALB/c mice; conditions: n = 3
# Description: Infection was carried out by intraperitoneal inoculation of 5 × 10^5 BTs of T. cruzi Arequipa strain per mouse in 0.2 mL PBS [26]. The infection was monitored and on the 10th day post-infection (dpi), when BTs were visible in the bloodstream, the infection was confirmed.
# Mice were divided into four groups (n = 3 per group): 0, negative control group (uninfected and untreated mice); I, positive control group (infected and untreated mice); II, BZN group (mice infected and treated with BZN); III, 15 group (mice infected and treated with 15).
# The treatment for mice treated in the acute and chronic CD began when the infection was confirmed (10th dpi) and was stablished that the animals had entered the chronic CD (75th dpi), respectively (Scheme 1). Compound 15 and BZN were orally administered for 5 consecutive days at a dose of 20 mg·Kg^−1·day^−1.
# Blood samples were collected in several dpi (Scheme 1) and processed according the method previously reported to obtain serum. Serum samples were then aliquoted to ELISA test and clinical analysis.
# Heart, kidney and liver markers were measured from blood in several dpi (Scheme 1) with Cromakit® as previously reported. Mean and standard deviations were calculated using the levels measured for different populations of sera (n = 15, n = 3), and the confidence interval were also calculated based on a confidence level of 95% (100 × (1 − α) = 100 × (1 − 0.05)).
# [6] = tested on: Vero cells; assay: Cytotoxicity test on mammalian Vero cells (resazurin); assay type: cell-based; conditions: Chlorocebus sabaeus, 48 h treatment + 24 h resazurin, mean of three ± SD, read-out: Toxicity IC50 Vero Cell
# Description: Cytotoxicity against mammalian Vero cells (EACC No. 84113001) was tested as previously reported. In brief, 1.25 × 10^4 Vero cells·mL^−1, cultured at 37 °C, were treated by adding the compounds in serial dilutions from 400 to 1 µM in 96-well plates (200 µL·well^−1) for 48 h. BZN and untreated controls were also included in triplicate. Later, 20 μL of resazurin sodium salt (Sigma-Aldrich) was added, and the plates were incubated for another 24 h. Finally, cell viability was determined following the same procedure as described to assess the trypanocidal activity in the epimastigotes.
# [7] = IC50 Vero cells/IC50 trypomastigotes
# [8] = treatment in acute phase, 16th dpi (2 days after treatment)
# [9] = treatment in acute phase, necropsy day
# [10] = treatment in chronic phase, 81th dpi (2 days after treatment)
# [11] = treatment in chronic phase, necropsy day
smiles,measurement,setting,value
c1cc2nc(c1)CNCCN(CCNCc1ccc3ccc4ccc(CNCCN5CCNCc6cccc(n6)CNCC5)nc4c3n1)CCNC2 [Compound 15],Selectivity Index T. cruzi SN3 Strain T,[1]; [7],62.0
same,IC50,"[1]; Trypanosoma cruzi, trypomastigotes, 24 h + 4 h resazurin, mean of three ± SD",10.6 ± 0.9 µM
same,Selectivity Index T. cruzi Tulahuen Strain E,[2]; IC50 Vero cells/IC50 epimastigotes,57.4
same,IC50,"[2]; Trypanosoma cruzi, TULAHUEN, epimastigotes, 48 h treatment + 24 h resazurin, mean of three ± SD, read-out: Activity IC50 T. cruzi Tulahuen Strain E",11.4 ± 1.1 µM
same,Selectivity Index T. cruzi SN3 Strain A,[3]; IC50 Vero cells/IC50 amastigotes,58.0
same,IC50,"[3]; Trypanosoma cruzi, amastigotes in Vero cells, 72 h, mean of three ± SD",11.3 ± 0.9 µM
same,Selectivity Index T. cruzi Tulahuen Strain T,[4]; [7],83.6
same,IC50,"[4]; Trypanosoma cruzi, TULAHUEN, trypomastigotes, 24 h + 4 h resazurin, mean of three ± SD",7.8 ± 0.7 µM
same,"ALP, variation over the range",[5]; [8],= (variation ≤ 10%)
same,"ALT/GPT, variation over the range",[5]; [8],++ (20-30% increase/decrease over the range)
same,"AST/GOT, variation over the range",[5]; [8],++ (20-30% increase/decrease over the range)
same,"CK-MB, variation over the range",[5]; [8],-- (20-30% increase/decrease over the range)
same,"LDH, variation over the range",[5]; [8],= (variation ≤ 10%)
same,"Total bilirubin, variation over the range",[5]; [8],+ (10-20% increase/decrease over the range)
same,"Urea, variation over the range",[5]; [8],- (10-20% increase/decrease over the range)
same,"Uric acid, variation over the range",[5]; [8],-- (20-30% increase/decrease over the range)
same,"ALP, variation over the range",[5]; [9],= (variation ≤ 10%)
same,"ALT/GPT, variation over the range",[5]; [9],+ (10-20% increase/decrease over the range)
same,"AST/GOT, variation over the range",[5]; [9],+ (10-20% increase/decrease over the range)
same,"CK-MB, variation over the range",[5]; [9],= (variation ≤ 10%)
same,"LDH, variation over the range",[5]; [9],= (variation ≤ 10%)
same,"Total bilirubin, variation over the range",[5]; [9],+ (10-20% increase/decrease over the range)
same,"Urea, variation over the range",[5]; [9],= (variation ≤ 10%)
same,"Uric acid, variation over the range",[5]; [9],= (variation ≤ 10%)
same,"ALP, variation over the range",[5]; [10],= (variation ≤ 10%)
same,"ALT/GPT, variation over the range",[5]; [10],+ (10-20% increase/decrease over the range)
same,"AST/GOT, variation over the range",[5]; [10],+ (10-20% increase/decrease over the range)
same,"CK-MB, variation over the range",[5]; [10],- (10-20% increase/decrease over the range)
same,"LDH, variation over the range",[5]; [10],= (variation ≤ 10%)
same,"Total bilirubin, variation over the range",[5]; [10],++ (20-30% increase/decrease over the range)
same,"Urea, variation over the range",[5]; [10],-- (20-30% increase/decrease over the range)
same,"Uric acid, variation over the range",[5]; [10],--- (30-40% increase/decrease over the range)
same,"ALP, variation over the range",[5]; [11],= (variation ≤ 10%)
same,"ALT/GPT, variation over the range",[5]; [11],= (variation ≤ 10%)
same,"AST/GOT, variation over the range",[5]; [11],= (variation ≤ 10%)
same,"CK-MB, variation over the range",[5]; [11],= (variation ≤ 10%)
same,"LDH, variation over the range",[5]; [11],= (variation ≤ 10%)
same,"Total bilirubin, variation over the range",[5]; [11],+ (10-20% increase/decrease over the range)
same,"Urea, variation over the range",[5]; [11],- (10-20% increase/decrease over the range)
same,"Uric acid, variation over the range",[5]; [11],- (10-20% increase/decrease over the range)
same,CC50,[6],655 ± 51.9 µM
